We go through 45 molecules from patent US12522607B2, “Substituted pyrazolo[3,4-d]pyrimidines as wee-1 inhibitors” (WIGEN BIOMEDICINE TECHNOLOGY (SHANGHAI) CO., LTD., priority 2020, dated 2026).

The structures appear in SMILES notation. Where only a bound is given, the exact number is not on record here.

Test [1] has as its system HT29 cells. Kind of test: Antiproliferative activity against HT29 cells (Cell Titer-Lumi, ATP content). Type of test: cell-based. Conditions: Homo sapiens, HT-29, 72 after compound addition, read-out: HT-29 cells Anti-proliferative activity (IC50 for the inhibition against HT-29 cell growth). As for the experimental part:
Example 343. Assay for Antiproliferative Activity Against HT29 Cells
3000 HT29 cells were seed in a 384-well plate (Fisher 142762). After the cells adhered to the wall overnight, the compounds diluted in a gradient were added. 72 later, Cell Titer-Lumi (Beyotime C0068XL) was added to determine the content of ATP in the cells. The growth of the cells was evaluated, and the IC50 for the inhibition of the compounds against cell growth was calculated.

The target in test [2] is T1, Wee-1 kinase (Homo sapiens, UniProt P30291).
T1 construct: purchased Invitrogen
The experiment in a line: Inhibitory activity against Wee-1 kinase (Lanthra Screen Wee-1 kinase kit, Tracer 178). The class given is binding. The following applies: Wee-1 kinase 5 nM, Tracer 178 50 nM, 1 h room temperature. As for the experimental part: Example 342. Assay for Inhibitory Activity of Compounds Against Wee-1 Kinase
The inhibitory activity of compounds against Wee-1 kinase was determined by using the Lanthra Screen Wee-1 kinase kit (Invitrogen). 5 μL of the compound diluted in a gradient with DMSO, 5 μL. of Wee-1 kinase (at a final concentration of 5 nM), 5 μL of an Eu-Anti-GST antibody (at a final concentration of 2 nM) mixture and 5 μL of kinase Tracer 178 (at a final concentration of 50 nM) were mixed well. The plate was read after incubation at room temperature for one hour. For comparison with the DMSO solvent control group, IC50 for the inhibition activity of the compounds against Wee-1 kinase was calculated.

T1 sequence (P30291 whole entry): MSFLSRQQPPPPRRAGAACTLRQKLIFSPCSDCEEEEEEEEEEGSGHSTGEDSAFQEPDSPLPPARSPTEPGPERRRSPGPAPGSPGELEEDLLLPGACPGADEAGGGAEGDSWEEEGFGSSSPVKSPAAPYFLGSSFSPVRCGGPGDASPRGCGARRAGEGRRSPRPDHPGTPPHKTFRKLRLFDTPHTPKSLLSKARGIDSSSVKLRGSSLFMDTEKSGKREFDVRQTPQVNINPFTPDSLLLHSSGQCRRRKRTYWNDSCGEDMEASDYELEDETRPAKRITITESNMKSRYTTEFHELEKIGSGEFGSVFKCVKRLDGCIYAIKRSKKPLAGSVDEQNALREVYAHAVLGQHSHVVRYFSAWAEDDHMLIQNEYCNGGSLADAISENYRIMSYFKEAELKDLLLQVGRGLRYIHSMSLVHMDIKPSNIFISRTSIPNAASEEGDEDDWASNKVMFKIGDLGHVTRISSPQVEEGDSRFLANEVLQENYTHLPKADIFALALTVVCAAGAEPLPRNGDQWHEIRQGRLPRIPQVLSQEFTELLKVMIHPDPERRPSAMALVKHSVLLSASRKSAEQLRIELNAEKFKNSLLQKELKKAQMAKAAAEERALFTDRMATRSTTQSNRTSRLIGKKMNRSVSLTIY

For the molecule `CN1CCN(c2ccc(Nc3ncc4c(=O)n(C5CC5)n(-c5ccc(=O)n(C(C)(C)C)n5)c4n3)cc2)CC1` [Compound 292], the IC50 in test [1] is at most 1 µM; in test [2], at most 0.03 µM.

As to `C=CCn1c(=O)c2cnc(Nc3ccc(N4CCN[C@@H](C)C4)cc3)nc2n1-c1ccc(=O)n(C(C)C)n1` [Compound 128], the IC50 in test [1] was at most 1 µM; in test [2], at most 0.03 µM.

`C=CCn1c(=O)c2cnc(Nc3ccc(N4CCN(C)CC4)cc3)nc2n1-c1ccc(=O)n(C2CCC2)n1` [Compound 12]: the IC50 in test [1] is at most 1 µM; in test [2], at most 0.03 µM.

As for `CCn1c(=O)c2cnc(Nc3ccc(N4CCN(C)CC4)cc3)nc2n1-c1cc(F)c(=O)n(C(C)C)c1` [Compound 315], the IC50 is at most 1 µM in test [1] and at most 0.03 µM in test [2].

As for `C=CCn1c(=O)c2cnc(Nc3ccc(C4CCNCC4)c(C(F)(F)F)c3)nc2n1-c1ccc(=O)n(C(C)C)n1` [Compound 196], the IC50 in test [1] was at most 1 µM; in test [2], at most 0.03 µM.

In the case of `Cc1cc(Nc2ncc3c(=O)n(C4CC4)n(-c4ccc(=O)n(C(C)C)c4)c3n2)ccc1N1CCN(C)CC1` [Compound 308], the IC50 in test [1] is at most 1 µM; in test [2] it was at most 0.03 µM.

Turning to `C=CCn1c(=O)c2cnc(Nc3ccc4c(c3)C(C)(C)CN(C)C4)nc2n1-c1ccc(=O)n(C(C)C)n1` [Compound 244], the IC50 is at most 1 µM in test [1] and at most 0.03 µM in test [2].

`C=CCn1c(=O)c2cnc(Nc3ccc(N4CC5(CCN5C)C4)c(C)c3)nc2n1-c1ccc(=O)n(C(C)C)n1` [Compound 187]: the figures for the IC50 in test [1] and in test [2] were at most 1 µM and at most 0.03 µM, respectively.

For `CCn1c(=O)c2cnc(Nc3ccc4c(c3)CN(C)CC43CC3)nc2n1-c1cc(F)c(=O)n(C(C)C)c1` [Compound 318], the IC50 in test [1] was at most 1 µM; in test [2], at most 0.03 µM.

Turning to `C=CCn1c(=O)c2cnc(Nc3cccc(N4CCN(C)CC4)c3)nc2n1-c1ccc(=O)n(C(C)C)n1` [Compound 68], the IC50 is at most 1 µM in test [1] and at most 0.03 µM in test [2].

With `C=CCn1c(=O)c2cnc(Nc3ccc(N4CCC(N5CCC(F)(F)CC5)CC4)cc3)nc2n1-c1ccc(=O)n(C(C)C)n1` [Compound 151], the IC50 was at most 1 µM in test [1] and at most 0.03 µM in test [2].

`C=CCn1c(=O)c2cnc(Nc3ccc(N4C[C@H](C)NC[C@H]4C)cc3)nc2n1-c1ccc(=O)n(C(C)C)n1` [Compound 124]: the IC50 in test [1] is at most 1 µM; in test [2], at most 0.03 µM.

Regarding `C=CCn1c(=O)c2cnc(Nc3ccc(N4CCN(CC(F)F)CC4)cc3)nc2n1-c1ccc(=O)n(C(C)C)n1` [Compound 38], the values for the IC50 in test [1] and in test [2] were at most 1 µM and at most 0.03 µM, respectively.

Consider `C=CCn1c(=O)c2cnc(Nc3ccc(N4CCC(N5CCN(C)CC5)CC4)c(OC)c3)nc2n1-c1ccc(=O)n(C(C)C)n1` [Compound 144], for which the figures for the IC50 in test [1] and in test [2] were at most 1 µM and at most 0.03 µM, respectively.

With `C=CCn1c(=O)c2cnc(Nc3ccc(C4CCN(C)CC4)c(C)c3)nc2n1-c1ccc(=O)n(C(C)(C)C)c1` [Compound 328], the 50% inhibitory concentration (IC50) in test [1] was at most 1 µM; in test [2] it was at most 0.03 µM.

As to `C=CCn1c(=O)c2cnc(Nc3cccc(N4CCNCC4)c3)nc2n1-c1ccc(=O)n(C(C)C)n1` [Compound 67], the figures for the IC50 in test [1] and in test [2] were at most 1 µM and at most 0.03 µM, respectively.

Take `C=CCn1c(=O)c2cnc(Nc3cc(Cl)cc(N4CCNCC4)c3)nc2n1-c1ccc(=O)n(C(C)C)n1` [Compound 73]: the IC50 in test [1] was at most 1 µM; in test [2] it was at most 0.03 µM.

`C=CCn1c(=O)c2cnc(Nc3cc(OC)c(N4CCN(C)CC4)cn3)nc2n1-c1ccc(=O)n(C(C)C)n1` [Compound 249]: the values for the IC50 in test [1] and in test [2] were at most 1 µM and at most 0.03 µM, respectively.

On to `CCn1c(=O)c2cnc(Nc3ccc(C4CCN(C)CC4)c(C)c3)nc2n1-c1ccc(=O)n(C(C)C)c1` [Compound 301], for which the values for the IC50 in test [1] and in test [2] were at most 1 µM and at most 0.03 µM, respectively.

On to `C=CCn1c(=O)c2cnc(Nc3ccc(N4CCC5(CCN(C)CC5)CC4)cc3)nc2n1-c1ccc(=O)n(C(C)C)n1` [Compound 184], for which the IC50 in test [1] was at most 1 µM; in test [2] it was at most 0.03 µM.

Regarding `Cc1cc(Nc2ncc3c(=O)n(C(C)C)n(-c4cc(F)c(=O)n(C(C)C)c4)c3n2)ccc1C1CCN(C)CC1` [Compound 321], the IC50 in test [1] was at most 1 µM; in test [2] it was at most 0.03 µM.

Take `C=CCn1c(=O)c2cnc(Nc3ccc(N4CCN(C)CC4)cc3)nc2n1-c1cn(C(C)C)c(=O)cc1C` [Compound 29]: the results for the IC50 in test [1] and in test [2] were at most 1 µM and at most 0.03 µM, respectively.

Take `Cc1cc(Nc2ncc3c(=O)n(C(C)C)n(-c4ccc(=O)n(C(C)C)n4)c3n2)ccc1C1CCN(C)CC1` [Compound 279]: the half-maximal inhibitory concentration (IC50) in test [1] was at most 1 µM; in test [2], at most 0.03 µM.

As to `CC(C)n1c(=O)c2cnc(Nc3ccc4c(c3)CN(C)CC43CC3)nc2n1-c1ccc(=O)n(C(C)(C)C)c1` [Compound 337], the IC50 is at most 1 µM in test [1] and at most 0.03 µM in test [2].

`C=CCn1c(=O)c2cnc(Nc3ccc(N4CCC(N(C)C)CC4)c(C)c3)nc2n1-c1ccc(=O)n(C(C)C)n1` [Compound 99]: the IC50 is at most 1 µM in test [1] and at most 0.03 µM in test [2].

For the molecule `C=CCn1c(=O)c2cnc(Nc3ccc(N4CCN(C)CC4)cc3)nc2n1-c1ccc(=O)n(CC(F)(F)F)n1` [Compound 8], the IC50 is 1 to 3 µM in test [1] and 0.03 to 0.1 µM in test [2].

Regarding `C=CCn1c(=O)c2cnc(Nc3ccc(N4CCC(N5CCN(C)CC5)CC4)c(C)c3)nc2n1-c1ccc(=O)n(C(C)C)n1` [Compound 143], the values for the 50% inhibitory concentration (IC50) in test [1] and in test [2] were at most 1 µM and at most 0.03 µM, respectively.

Turning to `CCn1c(=O)c2cnc(Nc3ccc(C4CCN(C)CC4)c(C)c3)nc2n1-c1ccc(=O)n(C(C)(C)C)n1` [Compound 286], the values for the half-maximal inhibitory concentration (IC50) in test [1] and in test [2] were at most 1 µM and at most 0.03 µM, respectively.

Regarding `C=CCn1c(=O)c2cnc(Nc3ccc(N4CCC5(CCN(C)CC5)CC4)c(C)c3)nc2n1-c1ccc(=O)n(C(C)C)n1` [Compound 185], the IC50 was at most 1 µM in test [1] and at most 0.03 µM in test [2].

As for `C=CCn1c(=O)c2cnc(Nc3ccc(N4C[C@@H](C)N[C@@H](C)C4)c(C)c3)nc2n1-c1ccc(=O)n(C(C)C)n1` [Compound 118], the IC50 in test [1] was at most 1 µM; in test [2] it was at most 0.03 µM.

Regarding `C=CCn1c(=O)c2cnc(Nc3ccc4c(c3)CN(C)CC4(C)C)nc2n1-c1ccc(=O)n(C(C)C)n1` [Compound 238], the figures for the IC50 in test [1] and in test [2] were at most 1 µM and at most 0.03 µM, respectively.

Consider `C=CCn1c(=O)c2cnc(Nc3ccc(N4CCC5(CC4)CN(C)C5)c(C)c3)nc2n1-c1ccc(=O)n(C(C)C)n1` [Compound 179], for which the 50% inhibitory concentration (IC50) in test [1] was at most 1 µM; in test [2] it was at most 0.03 µM.

On to `C=CCn1c(=O)c2cnc(Nc3ccc(N4CCN(C5CCN(C)CC5)CC4)c(C)c3)nc2n1-c1ccc(=O)n(C(C)C)n1` [Compound 139], for which the figures for the half-inhibitory concentration (IC50) in test [1] and in test [2] were at most 1 µM and at most 0.03 µM, respectively.

For `C=CCn1c(=O)c2cnc(Nc3ccc4c(c3)CN(C)CC43CC3)nc2n1-c1ccc(=O)n(C(C)(C)C)c1` [Compound 329], the IC50 in test [1] is at most 1 µM; in test [2] it was at most 0.03 µM.

As to `C=CCn1c(=O)c2cnc(Nc3cc(F)cc(N4CCN(C)CC4)c3)nc2n1-c1ccc(=O)n(C(C)C)n1` [Compound 72], the values for the IC50 in test [1] and in test [2] were at most 1 µM and at most 0.03 µM, respectively.

As for `C=CCn1c(=O)c2cnc(Nc3ccc(N4CCNCC4)cc3)nc2n1-c1ccc(=O)n(C(C)C)n1` [Compound 31], the IC50 was at most 1 µM in test [1] and at most 0.03 µM in test [2].

In the case of `C=CCn1c(=O)c2cnc(Nc3ccc(N(C)CCN(C)C)nc3)nc2n1-c1ccc(=O)n(C(C)C)n1` [Compound 246], the figures for the IC50 in test [1] and in test [2] were at most 1 µM and at most 0.03 µM, respectively.

Turning to `C=CCn1c(=O)c2cnc(Nc3ccc(N4CCC(N5CCC(F)(F)CC5)CC4)c(C)c3)nc2n1-c1ccc(=O)n(C(C)C)n1` [Compound 152], the IC50 in test [1] is at most 1 µM; in test [2] it was at most 0.03 µM.

Turning to `Cc1cc(Nc2ncc3c(=O)n(C(C)C)n(-c4ccc(=O)n(C(C)C)c4)c3n2)ccc1N1CCN(C)CC1` [Compound 304], the IC50 is at most 1 µM in test [1] and at most 0.03 µM in test [2].

For `CC(C)n1nc(-n2c3nc(Nc4ccc5c(c4)CN(C)CC54CC4)ncc3c(=O)n2C2CC2)ccc1=O` [Compound 274], the IC50 in test [1] was at most 1 µM; in test [2] it was at most 0.03 µM.

Turning to `C=CCn1c(=O)c2cnc(Nc3ccc(N4CC(N(C)C)C4)c(OC)c3)nc2n1-c1ccc(=O)n(C(C)C)n1` [Compound 79], the IC50 in test [1] was at most 1 µM; in test [2] it was at most 0.03 µM.

Take `C=CCn1c(=O)c2cnc(Nc3ccc4c(c3)C3(CC3)CN(C(C)C)C4)nc2n1-c1ccc(=O)n(C(C)C)n1` [Compound 236]: the IC50 was at most 1 µM in test [1] and at most 0.03 µM in test [2].

Regarding `C=CCn1c(=O)c2cnc(Nc3ccc(C4CCN(C)CC4)c(C(F)(F)F)c3)nc2n1-c1ccc(=O)n(C(C)C)n1` [Compound 197], the IC50 in test [1] was at most 1 µM; in test [2], at most 0.03 µM.

Regarding `C=CCn1c(=O)c2cnc(Nc3ccc(N4C[C@H](C)NC[C@H]4C)c(C)c3)nc2n1-c1ccc(=O)n(C(C)C)n1` [Compound 126], the concentration for half-maximal inhibition (IC50) is at most 1 µM in test [1] and at most 0.03 µM in test [2].

Regarding `C=CCn1c(=O)c2cnc(Nc3ccc(N4CCC(N5CCN(C)CC5)CC4)cc3)nc2n1-c1ccc(=O)n(C(C)C)n1` [Compound 142], the IC50 was at most 1 µM in test [1] and at most 0.03 µM in test [2].
